From ChEMBL document CHEMBL1201862, “PubChem BioAssay data set” (2004)
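Interpolation was linear, between the two tested concentrations surrounding the appropriate level; five concentrations were tested over 48 hours in 96-well plates. Abbreviation: GI50, concentration required for 50% inhibition of growth.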 Active and inactive are the calls of the source. No stated cut-off is given here; in the data, active = GI50 up to about 1.1 µM and inactive = higher.

Key:
Experiment in all cases: NCI-60 cell line screen, 48 h
HL-60 = tested on: HL-60
786-0 = tested on: 786-0
HCT-15 = tested on: HCT-15
RPMI-8226 = tested on: RPMI-8226
TK-10 = tested on: TK-10
OVCAR-4 = tested on: OVCAR-4
M14 = tested on: M14
CAKI-1 = tested on: CAKI-1
NCI-H522 = tested on: NCI-H522
EKVX = tested on: EKVX
MOLT-4 = tested on: MOLT-4
SNB-19 = tested on: SNB-19
NCI-H23 = tested on: NCI-H23
LOX IMVI = tested on: LOX IMVI
SF-295 = tested on: SF-295
SR = tested on: SR
HOP-92 = tested on: HOP-92

SMILES | GI50 (HL-60) | GI50 (786-0) | GI50 (HCT-15) [µM] | GI50 (RPMI-8226) | GI50 (TK-10) | GI50 (OVCAR-4) | GI50 (M14) | GI50 (CAKI-1) | GI50 (NCI-H522) | GI50 (EKVX) | GI50 (MOLT-4) | GI50 (SNB-19) | GI50 (NCI-H23) | GI50 (LOX IMVI) | GI50 (SF-295) | GI50 (SR) | GI50 (HOP-92)
CC1(C)OB(O)OC1(C)C | > 100 µM (inactive) | > 100 µM (inactive) | > 100 | > 100 µM (inactive) | > 100 µM (inactive) | > 100 µM (inactive) | > 100 µM (inactive) | > 100 µM (inactive) | > 100 µM (inactive) | > 100 µM (inactive) | > 100 µM (inactive) | > 100 µM (inactive) | > 100 µM (inactive) | > 100 µM (inactive) | > 100 µM (inactive) | – | –
C/C(=C\CC/C=C(\C)CC/C=C(\C)CCC1SC1(C)C)CC/C=C(\C)CCC1OC1(C)C (stereo unspecified) | > 100 µM (inactive) | > 100 µM (inactive) | > 100 | > 100 µM (inactive) | > 100 µM (inactive) | > 100 µM (inactive) | > 100 µM (inactive) | > 100 µM (inactive) | 47.3 µM (inactive) | > 100 µM (inactive) | > 100 µM (inactive) | > 100 µM (inactive) | > 100 µM (inactive) | – | > 100 µM (inactive) | > 100 µM (inactive) | > 100 µM (inactive)
CNC(=S)NC1CCCCC1NC(=S)NC (stereo unspecified) | > 100 µM (inactive) | > 100 µM (inactive) | > 100 | > 100 µM (inactive) | – | > 100 µM (inactive) | > 100 µM (inactive) | > 100 µM (inactive) | > 100 µM (inactive) | > 100 µM (inactive) | > 100 µM (inactive) | > 100 µM (inactive) | > 100 µM (inactive) | > 100 µM (inactive) | > 100 µM (inactive) | > 100 µM (inactive) | > 100 µM (inactive)
O=C(N/C(=C\c1cccc([N+](=O)[O-])c1)c1nc2ccccc2[nH]1)c1ccccc1 | – | 55.2 µM (inactive) | 26.1 | 40.8 µM (inactive) | – | > 100 µM (inactive) | 66.8 µM (inactive) | 59.4 µM (inactive) | 36.8 µM (inactive) | > 100 µM (inactive) | 32.9 µM (inactive) | 61.2 µM (inactive) | 49.1 µM (inactive) | – | – | 37.3 µM (inactive) | 40.6 µM (inactive)
COc1c(Br)cc(Br)c(OC)c1-c1ccc[nH]1 | 31.6 µM (inactive) | > 100 µM (inactive) | 55.8 | 80.4 µM (inactive) | 5.83 µM (inactive) | 22.1 µM (inactive) | 75.7 µM (inactive) | 13.3 µM (inactive) | 55.1 µM (inactive) | > 100 µM (inactive) | 46.8 µM (inactive) | – | > 100 µM (inactive) | > 100 µM (inactive) | > 100 µM (inactive) | – | 37.3 µM (inactive)
CC12CC3C(CC1SCC(=O)O2)C3(C)C (stereo unspecified) | > 100 µM (inactive) | > 100 µM (inactive) | > 100 | > 100 µM (inactive) | > 100 µM (inactive) | > 100 µM (inactive) | > 100 µM (inactive) | – | – | > 100 µM (inactive) | > 100 µM (inactive) | – | > 100 µM (inactive) | – | > 100 µM (inactive) | – | > 100 µM (inactive)
COC(=O)c1nc(-c2ccc(Cl)c(Cl)c2)nc2ccc(Cl)cc12 | > 100 µM (inactive) | 27.5 µM (inactive) | – | > 100 µM (inactive) | 44 µM (inactive) | – | – | > 10 µM (inactive) | > 10 µM (inactive) | 59.7 µM (inactive) | > 10 µM (inactive) | 44.1 µM (inactive) | 68.5 µM (inactive) | – | 37.7 µM (inactive) | > 100 µM (inactive) | 10.8 µM (inactive)
CC(=O)OC12c3ccccc3C1CCCCCC21OCCCO1 (stereo unspecified) | > 100 µM (inactive) | > 100 µM (inactive) | > 100 | > 100 µM (inactive) | > 100 µM (inactive) | > 100 µM (inactive) | > 100 µM (inactive) | > 100 µM (inactive) | > 100 µM (inactive) | – | > 100 µM (inactive) | > 100 µM (inactive) | > 100 µM (inactive) | > 100 µM (inactive) | > 100 µM (inactive) | > 100 µM (inactive) | –
CCc1ccc(/C(C)=N/NC(N)=S)cc1 | – | > 100 µM (inactive) | – | > 100 µM (inactive) | > 100 µM (inactive) | 37.6 µM (inactive) | > 100 µM (inactive) | 70 µM (inactive) | – | > 100 µM (inactive) | 17.2 µM (inactive) | > 100 µM (inactive) | > 100 µM (inactive) | – | > 100 µM (inactive) | > 100 µM (inactive) | > 100 µM (inactive)
Cc1cc(C)nc(NS(=O)(=O)c2ccc(NC(=O)c3cccc4c(Nc5ccc(S(=O)(=O)N=C(N)N)cc5)c5ccccc5nc34)cc2)n1 | 5.56 µM (inactive) | 30.3 µM (inactive) | 30.1 | 15.1 µM (inactive) | 34.8 µM (inactive) | 14.5 µM (inactive) | 94.6 µM (inactive) | 20.5 µM (inactive) | 44.3 µM (inactive) | 35 µM (inactive) | 32.8 µM (inactive) | 33.1 µM (inactive) | 40 µM (inactive) | 39.5 µM (inactive) | 27.4 µM (inactive) | – | 19.9 µM (inactive)
CCOc1ccc(C2=NN(CC)C(=O)C(C3C(=O)N(c4ccccc4)N=C3C)C2)cc1 (stereo unspecified) | > 100 µM (inactive) | > 100 µM (inactive) | > 100 | > 100 µM (inactive) | > 100 µM (inactive) | > 100 µM (inactive) | > 100 µM (inactive) | > 100 µM (inactive) | > 100 µM (inactive) | > 100 µM (inactive) | > 100 µM (inactive) | > 100 µM (inactive) | > 100 µM (inactive) | > 100 µM (inactive) | > 100 µM (inactive) | – | > 100 µM (inactive)
CC(C)(C)NC(=O)NC12CC3CC(CC(F)(C3)C1)C2 | > 100 µM (inactive) | > 100 µM (inactive) | – | > 100 µM (inactive) | > 100 µM (inactive) | – | > 100 µM (inactive) | – | > 100 µM (inactive) | > 100 µM (inactive) | > 100 µM (inactive) | > 100 µM (inactive) | > 100 µM (inactive) | > 100 µM (inactive) | – | – | > 100 µM (inactive)
CN(C)CC1CCC/C1=N\O (stereo unspecified) | – | > 100 µM (inactive) | > 100 | > 100 µM (inactive) | > 100 µM (inactive) | > 100 µM (inactive) | > 100 µM (inactive) | > 100 µM (inactive) | > 100 µM (inactive) | – | > 100 µM (inactive) | – | > 100 µM (inactive) | > 100 µM (inactive) | > 100 µM (inactive) | > 100 µM (inactive) | > 100 µM (inactive)
CC(CC(=O)N1C(=O)C(C)(C)[C@@H](O)[C@H]1CC(C)C(Cl)(Cl)Cl)C(Cl)(Cl)Cl (stereo partly specified) | > 100 µM (inactive) | > 100 µM (inactive) | > 100 | > 100 µM (inactive) | > 100 µM (inactive) | > 100 µM (inactive) | > 100 µM (inactive) | > 100 µM (inactive) | > 100 µM (inactive) | > 100 µM (inactive) | > 100 µM (inactive) | > 100 µM (inactive) | – | > 100 µM (inactive) | > 100 µM (inactive) | – | > 100 µM (inactive)
COC(=O)C1=C(c2cc(OC)c(OC)c(OC)c2)OC(c2ccc3c(c2)OCO3)C1 (stereo unspecified) | – | 35.2 µM (inactive) | 19.1 | 33.4 µM (inactive) | 80 µM (inactive) | 40.5 µM (inactive) | 29.4 µM (inactive) | 22.6 µM (inactive) | – | 27 µM (inactive) | 15.8 µM (inactive) | 42.5 µM (inactive) | 25.7 µM (inactive) | 6.28 µM (inactive) | 18.5 µM (inactive) | 5.38 µM (inactive) | 24.8 µM (inactive)
O=C(CCc1n[nH]c(=S)o1)Nc1cc(Cl)ccc1Cl | 30.5 µM (inactive) | 29.6 µM (inactive) | 20.7 | 19.1 µM (inactive) | > 100 µM (inactive) | > 100 µM (inactive) | > 100 µM (inactive) | > 100 µM (inactive) | – | > 100 µM (inactive) | > 100 µM (inactive) | > 100 µM (inactive) | > 100 µM (inactive) | – | > 100 µM (inactive) | – | > 100 µM (inactive)
C[Si](C)(C)/C=C\CCO | > 100 µM (inactive) | > 100 µM (inactive) | > 100 | > 100 µM (inactive) | > 100 µM (inactive) | – | > 100 µM (inactive) | – | > 100 µM (inactive) | > 100 µM (inactive) | > 100 µM (inactive) | > 100 µM (inactive) | > 100 µM (inactive) | > 100 µM (inactive) | > 100 µM (inactive) | > 100 µM (inactive) | > 100 µM (inactive)
c1ccc(C2(c3ccccc3)SSC3(S2)C2CC4CC(C2)CC3C4)cc1 (stereo unspecified) | 35.9 µM (inactive) | > 100 µM (inactive) | > 100 | 37.2 µM (inactive) | > 100 µM (inactive) | > 100 µM (inactive) | > 100 µM (inactive) | > 100 µM (inactive) | – | > 100 µM (inactive) | > 56.6 µM (inactive) | > 100 µM (inactive) | > 100 µM (inactive) | > 100 µM (inactive) | > 100 µM (inactive) | > 59.2 µM (inactive) | > 100 µM (inactive)
CCc1cccc(C)c1N1C(=O)C(=O)C(c2nc3ccccc3o2)/C(=N/NC(=S)NN)C1=O (stereo unspecified) | > 100 µM (inactive) | > 100 µM (inactive) | > 100 | > 100 µM (inactive) | > 100 µM (inactive) | > 100 µM (inactive) | > 100 µM (inactive) | > 100 µM (inactive) | > 100 µM (inactive) | > 100 µM (inactive) | – | > 100 µM (inactive) | > 100 µM (inactive) | > 100 µM (inactive) | > 100 µM (inactive) | – | > 100 µM (inactive)
